Data reported in publication PMC11604428, “UPLC-ESI/MS^n metabolic profiling of Cedrela odorata L. and Toona ciliata M. Roem and in vitro investigation of their anti-diabetic activity supported with molecular docking studies” (Frontiers in Chemistry, 2024).

How the values were obtained:
C57BL/KsJ-db/db mice = system: C57BL/KsJ-db/db mice; parameters: method as in Jung et al., 2006; conditions: ref Jung et al., 2006; cited from earlier work
α-amylase [1] = experiment: α-Amylase inhibition assay; format: biochemical; conditions: mean ± SD, triplicate
Description: The α-amylase inhibitory activities of the tested Cedrela extracts were determined according to the standard published procedure with minor amendments ([Kazeem et al., 2013]). The enzyme solution was prepared by dissolving α-amylase in 20 mM phosphate buffer (pH = 6.9) at a concentration of 0.50 mg/mL. Then, 1 mL of different concentrations of the tested extract (0.01–100 μg/mL) was mixed with 1 mL of enzyme solution and allowed to sit at room temperature for 10 min. After incubation, 1 mL of 0.50% starch solution was included to the mixture and further incubated at room temperature for 10 min. The reaction was then ended by addition of 3,5-dinitrosalicylic acid (2 mL) and then heating the reaction mixture in a boiling water bath for 5 min. After cooling, the absorbance of the mixture was colorimetrically determined at 565 nm. Pioglitazone was used as a standard drug.
The assays were performed in triplicates, and the obtained values are stated as mean ± SD. For the in vitro investigation of α-amylase and α-glucosidase inhibitory properties, the IC50 was obtained from the graph plots of the dose–response curves at each oil concentration via Graph Pad Prism® software (San Diego, CA, United States).

[2] = system: streptozotocin-induced diabetic mice; parameters: method as in Lee et al., 2010; Jang et al., 2009; Jang et al., 2010; conditions: streptozotocin-nicotinamide-induced, streptozotocin + high-fat diet and streptozotocin-induced diabetic mice, ref Lee et al., 2010, Jang et al., 2009; cited from earlier work
α-glucosidase = α-glucosidase (Saccharomyces cerevisiae, UniProt P53341); parameters: method as in Shen et al., 2023; conditions: ref Shen et al., 2023; cited from earlier work
α-amylase [3] = system: α-amylase; parameters: method as in Shen et al., 2023; conditions: ref Shen et al., 2023; cited from earlier work

Chain of α-glucosidase (P53341 whole entry): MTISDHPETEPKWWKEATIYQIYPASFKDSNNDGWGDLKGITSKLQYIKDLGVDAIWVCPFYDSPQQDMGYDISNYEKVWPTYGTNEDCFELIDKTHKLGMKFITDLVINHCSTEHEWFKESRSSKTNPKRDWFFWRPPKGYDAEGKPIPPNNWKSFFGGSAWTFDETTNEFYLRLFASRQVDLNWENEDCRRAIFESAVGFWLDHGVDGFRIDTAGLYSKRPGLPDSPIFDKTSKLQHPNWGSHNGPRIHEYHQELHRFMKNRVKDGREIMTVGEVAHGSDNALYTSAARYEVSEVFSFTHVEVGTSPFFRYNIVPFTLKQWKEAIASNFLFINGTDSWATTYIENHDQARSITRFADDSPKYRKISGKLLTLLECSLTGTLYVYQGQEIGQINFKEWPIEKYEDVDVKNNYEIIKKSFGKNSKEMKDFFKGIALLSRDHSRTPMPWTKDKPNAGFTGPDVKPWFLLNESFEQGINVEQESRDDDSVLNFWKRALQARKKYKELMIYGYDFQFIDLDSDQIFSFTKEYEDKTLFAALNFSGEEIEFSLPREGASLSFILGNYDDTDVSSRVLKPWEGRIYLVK

O=C(O)/C=C/c1ccc(O)c(O)c1 [Caffeic acid]
anti-hyperglycemic effect (C57BL/KsJ-db/db mice): anti-hyperglycemic properties

CCc1ccc(CCOc2ccc(CC3SC(=O)NC3=O)cc2)nc1 (stereo not shown) [Pioglitazone]
α-Amylase inhibition (%) (α-amylase [1]; concentration 0.01 µg/mL): 12.50 ± 2.05% | α-Amylase inhibition (%) (α-amylase [1]; concentration 0.10 µg/mL): 27.70 ± 1.28% | α-Amylase inhibition (%) (α-amylase [1]; concentration 1.00 µg/mL): 45.40 ± 2.45% | α-Amylase inhibition (%) (α-amylase [1]; concentration 10.00 µg/mL): 80.60 ± 0.23% | α-Amylase inhibition (%) (α-amylase [1]; concentration 100.00 µg/mL): 91.70 ± 1.05% | α-Amylase inhibition IC50 (α-amylase [1]): 2.17 ± 0.23 µg/mL

C[C@H]1[C@H](C)CC[C@]2(C(=O)O)CC[C@]3(C)C(=CC[C@@H]4[C@@]5(C)CC[C@H](O)C(C)(C)[C@@H]5CC[C@]43C)[C@H]12 [Ursolic acid]
effect on blood glucose levels [2]: positive effect on reducing blood glucose levels

O=c1c(O)c(-c2ccc(O)c(O)c2)oc2cc(O)cc(O)c12 [quercetin]
inhibition of α-glucosidase activity (α-glucosidase): markedly inhibited | inhibition of α-amylase activity (α-amylase [3]): markedly inhibited
